In patent US20090326003A1, “PYRAZOLO (3, 4-B) PYRIDINE DERIVATIVES AS PDE4 INHIBITORS” (priority 2006, published 2009):
Each block holds one molecule with its values, some of them ahead of it.

How the values were obtained:
[1] = tested on: atopic dermatitis patients; conditions: 0.5% ointment, twice daily topical application; cited from earlier work
[2] = target: T1, PDE4B (human recombinant) (Homo sapiens, UniProt Q07343); assay: PDE4B inhibition, fluorescence polarisation (FP) and/or SPA assay; format: biochemical; conditions: n=1 or average of 2 or more readings, accuracy ±about 0.5 log unit, read-out: PDE4B pIC50 (generally in FP assay) (±about 0.5) (converted)
T1 construct: made in house
Source text: Human recombinant PDE4B, in particular the 2B splice variant thereof (HSPDE4B2B), is disclosed in WO 94/20079 and also M. M. McLaughlin et al., “A low Km, rolipram-sensitive, cAMP-specific phosphodiesterase from human brain: cloning and expression of cDNA, biochemical characterisation of recombinant protein, and tissue distribution of mRNA”, J. Biol. Chem., 1993, 268, 6470-6476. For example, in Example 1 of WO 94/20079, human recombinant PDE4B is described as being expressed in the PDE-deficient yeast Saccharomyces cerevisiae strain GL62, e.g. after induction by addition of 150 uM CuSO4, and 100,000×g supernatant fractions of yeast cell lysates are described for use in the harvesting of PDE4B enzyme.
The ability of compounds to inhibit catalytic activity at PDE4B or 4D (human recombinant), PDE3 (from bovine aorta), PDE5 (human recombinant) or PDE6 (from bovine retina) can optionally be determined by Scintillation Proximity Assay (SPA) in a 96-well format.
Test compounds (as a solution in DMSO, preferably about 2 microliter (ul) volume of DMSO solution) are preincubated at ambient temperature (room temperature, e.g. 19-23° C.) in Wallac Isoplates (code 1450-514) with PDE enzyme in 50 mM Tris-HCl buffer pH 7.5, 8.3 mM MgCl2, 1.7 mM EGTA, 0.05% (w/v) bovine serum albumin for 10-30 minutes (usually 30 minutes). The enzyme concentration is adjusted so that no more than 20% hydrolysis of the substrate defined below occurs in control wells without compound, during the incubation. For the PDE3, PDE4B and PDE4D assays, [5′,8-3H]Adenosine 3′,5′-cyclic phosphate (Amersham Pharmacia Biotech, code TRK.559; or Amersham Biosciences UK Ltd, Pollards Wood, Chalfont St Giles, Buckinghamshire HP8 4SP, UK) is added to give 0.05 uCi per well and about 10 nM final concentration. For the PDE5 and PDE6 assays, [8-^3H]Guanosine 3′,5′-cyclic phosphate (Amersham Pharmacia Biotech, code TRK.392) is added to give 0.05 uCi per well and about 36 nM final concentration. Plates containing assay mixture, preferably approx. 100 ul volume of assay mixture, are mixed on an orbital shaker for 5 minutes and incubated at ambient temperature for 1 hour. Phosphodiesterase SPA beads (Amersham Pharmacia Biotech, code RPNQ 0150) are added (about 1 mg per well) to terminate the assay. Plates are sealed and shaken and allowed to stand at ambient temperature for 35 minutes to 1 hour (preferably 35 minutes) to allow the beads to settle. Bound radioactive product is measured using a WALLAC TRILUX 1450 Microbeta scintillation counter. For inhibition curves, 10 concentrations (e.g. 1.5 nM-30 uM) of each compound are assayed. Curves are analysed using ActivityBase and XLfit (ID Business Solutions Limited, 2 Ocean Court, Surrey Research Park, Guildford, Surrey GU2 7QB, United Kingdom) Results are expressed as pIC50 values.
The ability of compounds to inhibit catalytic activity at PDE4B (human recombinant) or PDE4D (human recombinant) can optionally be determined by IMAP Fluorescence Polarisation (FP) assay (IMAP Explorer kit, available from Molecular Devices Corporation, Sunnydale, Calif., USA; Molecular Devices code: R8062) in 384-well format.
The IMAP FP assay is able to measure PDE activity in an homogenous, non-radioactive assay format. The FP assay uses the ability of immobilised trivalent metal cations, coated onto nanoparticles (tiny beads), to bind the phosphate group of FI-AMP that is produced on the hydrolysis of fluorescein-labelled (FI) cyclic adenosine mono-phosphate (FI-cAMP) to the non-cyclic FI-AMP form. […] Binding of FI-AMP product to the beads (coated with the immobilised trivalent cations) slows the rotation of the bound FI-AMP and leads to an increase in the fluorescence polarisation ratio of parallel to perpendicular light. Inhibition of the PDE reduces/inhibits this signal increase. […]

[3] = tested on: TNF-α production in human PBMC (peripheral blood mononuclear cells); assay: Inhibition of TNF-alpha production in human PBMC (MSD technology); format: cell-based; conditions: inhibition of LPS-stimulated TNF-α production in human PBMC; measured and/or mean; read-out: PBMC pIC50 (MSD assay) (converted)
Method: A 96-well plate (96 MicroWell™ Plates Nunclon™Δ-High Flange Design, Fisher Scientific UK, Bishop Meadow Road, Loughborough LE 11 5 RG, Leicestershire, UK) is prepared by initially adding to column 1 ca. 10 mM of test compound dissolved in DMSO. […] The compound is further diluted with DMSO into columns 2 to 9 by 8 successive 3fold dilutions using the Biomek® FX Laboratory Automation Workstation (Beckman Coulter, Inc., 4300 N. Harbor Boulevard, P.O. Box 3100, Fullerton, Calif. 92834-3100 USA). Column 10 is used as a DMSO negative control (High Signal, 0% response), whilst column 11, which contains 10 mM of the PDE4 inhibitor roflumilast, is used as a positive control (Low Signal, 100% response). About 1 μl (about 1 ul) of compound is transferred to the compound plate using the Biomek® FX.
PBMC cells (peripheral blood mononuclear cells) are prepared from heparinised human blood (using 1% v/v Heparin Sodium 10001 U/ml Endotoxin Free, Leo Laboratories Ltd., Cashel Road, Dublin 12. Ireland, Cat No: PL0043/0149) from normal volunteers using the Accuspin™ System-Histopaque®-1077 essentially (Sigma-Aldrich Company Ltd., The Old Brickyard New Rd, Gillingham Dorset SP8 4XT). About 20 ml of blood is overlaid onto 15 ml Histopaque® in Accuspin™ tubes. The tube is then centrifuged at about 800 g for ca. 20 minutes. The cells are collected from the interface, washed by centrifugation (ca. 1300 g, ca. 10 minutes) and resuspended in RPMI1640 medium (Low endotoxin RPMI1640 medium, Cat No: 31870-025, Invitrogen Corporation Invitrogen Ltd, 3 Fountain Drive, Inchinnan Business Park, Paisley PA4 9RF, UK) containing 10% foetal calf serum, 1% L-glutamine (Invitrogen Corporation, Cat No: 25030024) and 1% penicillin/streptomycin (Invitrogen Corporation, Cat No: 15140-122). Viable cells are counted by trypan blue staining and diluted to 1×10^6 viable cells/ml. About 50 μl (about 50 ul) of diluted cells and about 75 μl (about 75 ul) of LPS (ca. 1 ng/ml final; Sigma Cat No: L-6386) are added to the compound plate, which is then incubated at 37° C., 5% CO2, for 20 hours.
The supernatant is removed and the concentrations of TNF-α are determined by electrochemiluminescence assay using the Meso Scale Discovery (MSD) technology (Meso Scale Discovery, 9238 Gaither Road, Gaithersburg, Md. 20877, USA). See the “TNF-α (TNF-alpha) MSD Assay” described below for typical details.
Using the Biomek FX, 25 μl (25 ul) of MSD Human Serum Cytokine Assay Diluent (Meso Scale Discovery, 9238 Gaither Road, Gaithersburg, Md. 20877) is added to a 96-well High-Bind MSD plate pre-coated with anti-hTNF alpha capture antibody (MA6000) and then incubated for 24 hours at 4° C. to prevent non-specific binding. […]
For the PBMC assay, about 20 μl (ul) of diluted sulfo-TAG antibody (ca. 1 μg/ml final) is added to each well, and the plates/wells are shaken at room temperature for 2 hours. Finally, about 90 μl (ul) of MSD Read Buffer P (diluted to 2.5 times with distilled water) is added and the plates are read on a MSD Sector 6000.
Data analysis is performed with ActivityBase/XC50 module (ID Business Solutions Ltd., 2 Occam Court, Surrey Research Park, Guildford, Surrey, GU2 7QB UK). Data are normalized and expressed as % inhibition using the formula 100*((U-C1)/(C2-C1)) where U is the unknown value, C1 is the average of the high signal (0%) control wells (column 10), and C2 is the average of the low signal (100%) control wells (column 11). […]

[4] = tested on: COPD patients; conditions: cited from earlier work
[5] = tested on: atopic dermatitis patients; conditions: 0.15% cream versus vehicle and hydrocortisone 17-butyrate (0.1%) cream; cited from earlier work
[6] = tested on: humans with histories of allergic rhinitis; conditions: orally 500 ug once daily for 9 days; intranasal allergen provocation (pollen extracts); cited from earlier work

T1 sequence (Q07343 1-564 isoform Q07343-2): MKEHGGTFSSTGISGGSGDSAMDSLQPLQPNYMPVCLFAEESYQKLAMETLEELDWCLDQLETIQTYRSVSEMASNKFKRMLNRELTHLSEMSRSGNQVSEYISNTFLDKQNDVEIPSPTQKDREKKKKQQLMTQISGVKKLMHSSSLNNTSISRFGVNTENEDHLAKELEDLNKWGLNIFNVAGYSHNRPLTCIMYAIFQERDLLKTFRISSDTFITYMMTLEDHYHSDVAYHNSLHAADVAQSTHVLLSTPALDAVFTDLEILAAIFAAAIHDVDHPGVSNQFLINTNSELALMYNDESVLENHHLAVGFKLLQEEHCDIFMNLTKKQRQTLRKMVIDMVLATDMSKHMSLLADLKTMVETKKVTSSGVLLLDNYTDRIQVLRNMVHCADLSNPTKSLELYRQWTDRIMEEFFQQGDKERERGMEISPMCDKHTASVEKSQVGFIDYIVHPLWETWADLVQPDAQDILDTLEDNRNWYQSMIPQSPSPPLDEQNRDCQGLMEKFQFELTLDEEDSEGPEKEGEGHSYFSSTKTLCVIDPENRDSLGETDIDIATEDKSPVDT

Compound: COc1ccc(C2CNC(=O)NC2)cc1O[C@H]1C[C@@H]2CC[C@H]1C2 [CP80,633]
- inflammatory parameters in atopic dermatitis patients [1]: reductions of inflammatory parameters

- IC50 [2]: ~100 pM
Compound: CCc1nc2c(cnn2CC)c(NC2CCOCC2)c1CNC(=O)c1cccc(-c2cccc(C(=O)NCc3c(CC)nc4c(cnn4CC)c3NC3CCOCC3)c2)c1 [Example 10, N,N′-bis{[1,6-diethyl-4-(tetrahydro-2H-pyran-4-ylamino)-1H-pyrazolo[3,4-b]pyridin-5-yl]methyl}-3,3′-biphenyldicarboxamide]
- IC50 [3]: ~20 pM

- IC50 [2]: ~25.1 pM
Compound: CCn1ncc2c(NC3CCOCC3)c(CNC(=O)c3ccc(-c4ccc(C(=O)NCc5c(C)nc6c(cnn6CC)c5NC5CCOCC5)cc4)cc3)c(C)nc21 [Example 28, N,N′-bis{[1-ethyl-6-methyl-4-(tetrahydro-2H-pyran-4-ylamino)-1H-pyrazolo[3,4-b]pyridin-5-yl]methyl}-4,4′-biphenyldicarboxamide]
- IC50 [3]: ~126 pM

Compound: COc1ccc([C@]2(C#N)CC[C@@H](C(=O)O)CC2)cc1OC1CCCC1 [cilomilast]
- forced expiratory volume in 1 s (FEV1) in COPD patients ([4]; 15 mg orally twice daily): appears to improve
- antiinflammatory effects in COPD patients ([4]; COPD patients): appears to have antiinflammatory effects

Compound: Nc1nc2c([nH]1)c(=O)n(CC1CC1)c(=O)n2CC1CC1 [cipamfylline]
- effectiveness in the treatment of atopic dermatitis patients [5]: significantly more effective than vehicle, but significantly less effective than hydrocortisone 17-butyrate (0.1%) cream

Compound: O=C(Nc1c(Cl)cncc1Cl)c1ccc(OC(F)F)c(OCC2CC2)c1 [roflumilast]
- FEV1 in COPD patients ([4]; COPD patients, dose not stated): small improvements
- rhinal airflow during the treatment period (compared to placebo) [6]: effective in improving rhinal airflow
